Laboratory results from US8574563B2 (Bristol-Myers Squibb Company, priority 2006, dated 2013).

System: HCV 1b-377-neo replicon cells
Assay: HCV replicon assay, HCV 1b-377-neo replicon cells (1b FRET)
Type: cell-based, Hepatitis C virus genotype 1b
Settings: Hepatitis C virus, HCV 1b-377-neo replicon cells; HCV 1b genotype; read-out: EC50 range against HCV 1b (Table 2, Range)
Summary of the method: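 Compounds tested in HCV genotype 1b-377-neo replicon cells with a FRET read-out. Cells resistant to a reference NS5A inhibitor through a Y2065H NS5A mutation were run alongside wild-type cells.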

Row | Compound | EC50 [pM]
1 | CN(C)[C@@H](C(=O)N1CCC[C@H]1c1ncc(-c2ccc(-c3ccc(-c4cnc([C@@H]5CCCN5C(=O)[C@@H](c5ccccc5)N(C)C)[nH]4)nn3)cc2)[nH]1)c1ccccc1 [Example 152j-9, (1R)-2-((2S)-2-(5-(6-(4-(2-((2S)-1-((2R)-2-(dimethylamino)-2-phenylacetyl)-2-pyrrolidinyl)-1H-imidazol-5-yl)phenyl)-3-pyridazinyl)-1H-imidazol-2-yl)-1-pyrrolidinyl)-N,N-dimethyl-2-oxo-1-phenylethanamine] | 1000 to 99000
2 | COC(=O)N[C@@H](C(=O)N1CCC[C@H]1c1ncc(-c2ccc(-c3ccc(-c4cnc([C@@H]5CCCN5C(=O)[C@H](NC(=O)OC)c5ccccc5)[nH]4)nn3)cc2)[nH]1)c1ccccc1 [Example 152j-10] | 1000 to 99000
3 | C[C@H](NC(=O)[C@@H](c1ccccc1)N(C)C)c1ncc(-c2ccc(-c3ccc(-c4cnc([C@@H]5CCCN5C(=O)[C@@H](c5ccccc5)N(C)C)[nH]4)cn3)cc2)[nH]1 [Example 152j-11, (2R)-2-(dimethylamino)-N-((1S)-1-(5-(4-(5-(2-((2S)-1-((2R)-2-(dimethylamino)-2-phenylacetyl)-2-pyrrolidinyl)-1H-imidazol-5-yl)-2-pyridinyl)phenyl)-1H-imidazol-2-yl)ethyl)-2-phenylacetamide] | 1 to 999
4 | COC(=O)N[C@@H](C(=O)N[C@@H](C)c1ncc(-c2ccc(-c3ccc(-c4cnc([C@@H]5CCCN5C(=O)[C@H](NC(=O)OC)c5ccccc5)[nH]4)cn3)cc2)[nH]1)c1ccccc1 [Example 152j-12, methyl ((1R)-2-((2S)-2-(5-(6-(4-(2-((1S)-1-(((2R)-2-((methoxycarbonyl)amino)-2-phenylacetyl)amino)ethyl)-1H-imidazol-5-yl)phenyl)-3-pyridinyl)-1H-imidazol-2-yl)-1-pyrrolidinyl)-2-oxo-1-phenylethyl)carbamate] | 1 to 999
5 | C[C@H](NC(=O)[C@@H](c1ccccc1)N(C)C)c1ncc(-c2ccc(-c3ccc(-c4cnc([C@@H]5CCCN5C(=O)[C@@H](c5ccccc5)N(C)C)[nH]4)nn3)cc2)[nH]1 [Example 152j-13, (2R)-2-(dimethylamino)-N-((1S)-1-(5-(4-(6-(2-((2S)-1-((2R)-2-(dimethylamino)-2-phenylacetyl)-2-pyrrolidinyl)-1H-imidazol-5-yl)-3-pyridazinyl)phenyl)-1H-imidazol-2-yl)ethyl)-2-phenylacetamide] | 1000 to 99000
6 | COC(=O)N[C@@H](C(=O)N[C@@H](C)c1ncc(-c2ccc(-c3ccc(-c4cnc([C@@H]5CCCN5C(=O)[C@H](NC(=O)OC)c5ccccc5)[nH]4)nn3)cc2)[nH]1)c1ccccc1 [Example 152j-14, methyl ((1R)-2-((2S)-2-(5-(6-(4-(2-((1S)-1-(((2R)-2-((methoxycarbonyl)amino)-2-phenylacetyl)amino)ethyl)-1H-imidazol-5-yl)phenyl)-3-pyridazinyl)-1H-imidazol-2-yl)-1-pyrrolidinyl)-2-oxo-1-phenylethyl)carbamate] | 1000 to 99000
7 | COC(=O)N[C@@H](C(=O)N[C@@H](C)c1ncc(-c2ccc(-c3ncc(-c4cnc([C@@H]5CCCN5C(=O)[C@H](NC(=O)OC)c5ccccc5)[nH]4)cn3)cc2)[nH]1)c1ccccc1 [Example 152j-15, methyl ((1R)-2-((2S)-2-(5-(2-(4-(2-((1S)-1-(((2R)-2-((methoxycarbonyl)amino)-2-phenylacetyl)amino)ethyl)-1H-imidazol-5-yl)phenyl)-5-pyrimidinyl)-1H-imidazol-2-yl)-1-pyrrolidinyl)-2-oxo-1-phenylethyl)carbamate] | 1 to 999
8 | C[C@H](NC(=O)[C@@H](c1ccccc1)N(C)C)c1ncc(-c2cnc(-c3ccc(-c4cnc([C@@H]5CCCN5C(=O)[C@@H](c5ccccc5)N(C)C)[nH]4)cc3)nc2)[nH]1 [Example 152j-16, (2R)-2-(dimethylamino)-N-((1S)-1-(5-(2-(4-(2-((2S)-1-((2R)-2-(dimethylamino)-2-phenylacetyl)-2-pyrrolidinyl)-1H-imidazol-5-yl)phenyl)-5-pyrimidinyl)-1H-imidazol-2-yl)ethyl)-2-phenylacetamide] | 1 to 999
9 | COC(=O)N[C@@H](C(=O)N[C@@H](C)c1ncc(-c2cnc(-c3ccc(-c4cnc([C@@H]5CCCN5C(=O)[C@H](NC(=O)OC)c5ccccc5)[nH]4)cc3)nc2)[nH]1)c1ccccc1 [Example 152j-17, methyl ((1R)-2-((2S)-2-(5-(4-(5-(2-((1S)-1-(((2R)-2-((methoxycarbonyl)amino)-2-phenylacetyl)amino)ethyl)-1H-imidazol-5-yl)-2-pyrimidinyl)phenyl)-1H-imidazol-2-yl)-1-pyrrolidinyl)-2-oxo-1-phenylethyl)carbamate] | 1 to 999
10 | C[C@H](NC(=O)[C@@H](c1ccccc1)N(C)C)c1ncc(-c2cnc(-c3ccc(-c4cnc([C@@H]5CCCN5C(=O)[C@@H](c5ccccc5)N(C)C)[nH]4)cc3)cn2)[nH]1 [Example 152j-18, (2R)-2-(dimethylamino)-N-((1S)-1-(5-(5-(4-(2-((2S)-1-((2R)-2-(dimethylamino)-2-phenylacetyl)-2-pyrrolidinyl)-1H-imidazol-5-yl)phenyl)-2-pyrazinyl)-1H-imidazol-2-yl)ethyl)-2-phenylacetamide] | 1 to 999
11 | COC(=O)N[C@@H](C(=O)N[C@@H](C)c1ncc(-c2cnc(-c3ccc(-c4cnc([C@@H]5CCCN5C(=O)[C@H](NC(=O)OC)c5ccccc5)[nH]4)cc3)cn2)[nH]1)c1ccccc1 [Example 152j-19, methyl ((1R)-2-((2S)-2-(5-(4-(5-(2-((1S)-1-(((2R)-2-((methoxycarbonyl)amino)-2-phenylacetyl)amino)ethyl)-1H-imidazol-5-yl)-2-pyrazinyl)phenyl)-1H-imidazol-2-yl)-1-pyrrolidinyl)-2-oxo-1-phenylethyl)carbamate] | 1 to 999
12 | COC(=O)N[C@@H](C(=O)N(C)[C@@H](C)c1ncc(-c2ccc(-c3ncc(-c4cnc([C@@H]5CCCN5C(=O)[C@H](NC(=O)OC)c5ccccc5)[nH]4)cn3)cc2)[nH]1)c1ccccc1 [Example 152j-21, methyl ((1R)-2-((2S)-2-(5-(2-(4-(2-((1S)-1-(((2R)-2-((methoxycarbonyl)amino)-2-phenylacetyl)(methyl)amino)ethyl)-1H-imidazol-5-yl)phenyl)-5-pyrimidinyl)-1H-imidazol-2-yl)-1-pyrrolidinyl)-2-oxo-1-phenylethyl)carbamate] | 1 to 999
13 | COC(=O)N[C@@H](C(=O)N[C@@H](C)c1ncc(-c2ccc(-c3ccc(-c4cnc([C@@H]5CCCN5C(=O)[C@H](NC(=O)OC)c5ccccc5)[nH]4)cc3)nc2)[nH]1)c1ccccc1 [Example 152j-22, methyl ((1R)-2-((2S)-2-(5-(4-(5-(2-((1S)-1-(((2R)-2-((methoxycarbonyl)amino)-2-phenylacetyl)amino)ethyl)-1H-imidazol-5-yl)-2-pyridinyl)phenyl)-1H-imidazol-2-yl)-1-pyrrolidinyl)-2-oxo-1-phenylethyl)carbamate] | 1 to 999
14 | COC(=O)N[C@@H](C(=O)N[C@@H](C)c1ncc(-c2ccc(-c3ccc(-c4cnc([C@H](C)NC(=O)[C@H](NC(=O)OC)c5ccccc5)[nH]4)cn3)cc2)[nH]1)c1ccccc1 [Example 152j-23, methyl ((1R)-2-(((1S)-1-(5-(6-(4-(2-((1S)-1-(((2R)-2-((methoxycarbonyl)amino)-2-phenylacetyl)amino)ethyl)-1H-imidazol-5-yl)phenyl)-3-pyridinyl)-1H-imidazol-2-yl)ethyl)amino)-2-oxo-1-phenylethyl)carbamate] | 1 to 999
